Reference: US5935966A, “Pyrimidine carboxylates and related compounds and methods for treating inflammatory conditions” (Signal Pharmaceuticals, Inc., priority 1996, dated 1999)

The compounds below were run on NFκB and AP-1 (assay: NFκB and AP-1 luciferase reporter assays in stable Jurkat T-cells (PMA/PHA stimulated)). Details: Homo sapiens, average of NFκB and AP-1 assays, read-out: ICm (average of the measurements obtained from the NFκB and AP-1 assays).
Type: cell-based, human
Source text: Stable human Jurkat T-cells containing an NFκB binding site (from the MHC promoter) fused to a minimal SV-40 promoter driving luciferase expression were used in this experiment. Cells were split to 3×10^5 cells/mL every 2-3 days (cell concentration should not exceed 1×10^6 cells/mL to keep the cells proliferating in log phase). These cells were counted, resuspended in fresh medium containing 10% Serum-Plus at a density of 1×10^6 cells/mL and plated in 96 well round bottom plates (200 μ.LAMBDA. per well) 18 hours prior to starting the experiment.
Compounds of this invention, dissolved in dimethyl sulfoxide (3.3, 0.33 and 0.03 μg/mL), were then added to the 96 well plates containing the cells and the plates were incubated for 0.5 h at 37° C. Then 50 ng/mL of phorbol 12-myristate-13-acetate (PMA) and 1 μg/mL of phytohemagglutinin (PHA) were added to each well and the cells were incubated for an additional 5 h at 37° C. The plates were centrifuged at 2200 RPM for 3 minutes at room temperature and then the medium was removed. To each well was added 60 μL of cell lysis buffer and the plates were left at room temperature for 0.25 h. Then 40 μL of each cell extract was transferred to a black 96 well plate and 50 μL of luciferase substrate buffer was added. Luminescence was immediately measured using a Packard TopCount.
For AP-1, the assay was run as described above for NFκB except stable Jurkat T-cells were used that contained a collagenase promoter driving luciferase expression. In addition, the concentration of PMA used was 5 ng/mL.
The IC50 values reported in Table 3 are the average of the measurements obtained from the NFκB and AP-1 assays described above.

| IC50 | Compound |
| --- | --- |
| 1000 nM | CCc1nc(N(C)N2C(=O)C=C(C)C2=O)ncc1-c1nc(C)co1 [Example 126, 2-[N-(1'-AMINOCITRACONAMIDO)-N-METHYL]-4-ETHYL-5-[2"-(4"-METHYL)OXAZOLYL]PYRIMIDINE] |
| 400 nM | CCOC(=O)c1cnc(-c2ccc(C(F)(F)F)cc2)nc1NN1C(=O)C=C(C)C1=O [Example 121, ETHYL 4-[N-(1'-AMINOCITRACONAMIDO)]-2-(4'-TRIFLUOROMETHYLPHENYL)PYRIMIDINE-5-CARBOXYLATE] |
| 250 nM | CC1=CC(=O)N(Nc2nc(-c3cccs3)ncc2-c2nnc(C)o2)C1=O [Example 142, 4-[N-(1'-AMINOCITRACONAMIDO)]-5-(5"-METHYL-1",3",4"-OXADIAZOL-2"-YL)-2-(2'"-THIENYL)PYRIMIDINE] |
| 20 nM | CCOC(=O)c1cnc(-c2cccs2)nc1NN1C(=O)C=C(C)C1=O [Example 122, ETHYL 4-[N-(1'-AMINOCITRACONAMIDO)]-2-(2'-THIENYL)-PYRIMIDINE-5-CARBOXYLATE] |
| 8000 nM | CCOC(=O)c1cnc(-c2cccc([N+](=O)[O-])c2)nc1NN1C(=O)C=C(C)C1=O [Example 120, ETHYL 4-[N-(1'-AMINOCITRACONAMIDO)]-2-(3'-NITROPHENYL)-PYRIMIDINE-5-CARBOXYLATE] |
| 190 nM | CC1=CC(=O)N(Nc2nc(-c3cccs3)ncc2-c2cc(C)no2)C1=O [Example 132, 4-[N-(1'-AMINOCITRACONAMIDO)]-5-(3"-METHYLISOXAZOL-5'-YL)-2-(2'"-THIENYL)PYRIMIDINE] |
| 1420 nM | CCc1nc(N(C)N2C(=O)C=C(C)C2=O)ncc1-c1noc(C)n1 [Example 129, 2-[N-(1'-AMINOCITRACONAMIDO)-N-METHYL]-4-ETHYL-5-[5"-METHYL-1",2",4"-OXADIAZOLYL]PYRIMIDINE] |
| 750 nM | CC1=CC(=O)N(N(C)c2ncc(-c3nc(C)co3)c(-c3cccs3)n2)C1=O [Example 127, 2-[N-(1'-AMINOCITRACONAMIDO)-N-METHYL]-5-[2"-(4"-METHYL)OXAZOLYL]-4-(2'"-THIENYL)PYRIMIDINE] |
| 4000 nM | CCOC(=O)c1cnc(Cc2ccc(Cl)c(Cl)c2)nc1NN1C(=O)C=C(C)C1=O [Example 124, ETHYL 4-[N-(1'-AMINOCITRACONAMIDO)]-2-(3',4'-DICHLOROBENZYL)-PYRIMIDINE-5-CARBOXYLATE] |
| 4000 nM | CCOC(=O)c1cnc(-c2ccccc2)nc1N(C(C)=O)N1C(=O)C=C(C)C1=O [Example 117, ETHYL 4-[N-ACETYL-N-(1'-AMINOCITRACONAMIDO)]-2-PHENYLPYRIMIDINE-5-CARBOXYLATE] |

The next lines start with the compound.

| Compound | IC50 |
| --- | --- |
| CC1=CC(=O)N(Nc2ncc(C(=O)OC(C)(C)C)c(C(F)(F)F)n2)C1=O [Example 79, t-BUTYL 2-[N-(1'-AMINOCITRACONAMIDO)]-4-TRIFLUOROMETHYLPYRIMIDINE-5-CARBOXYLATE] | 200 nM |
| CCOC(=O)c1cnc(N(C)N2C(=O)C=C(C)C2=O)nc1-c1ccc(C)s1 [Example 92, ETHYL 2-[N-(1'-AMINOCITRACONAMIDO-N-METHYL)]-4-[2'-(5'-METHYLTHIENYL)]PYRIMIDINE-5-CARBOXYLATE] | 300 nM |
| CCOC(=O)c1cnc(N(C(=O)NC)N2C(=O)C=C(C)C2=O)nc1C(F)(F)F [Example 96, ETHYL 2-[N-(1'-AMINOCITRACONAMIDO)-N-(N'-METHYLCARBOXAMIDYL)]-4-TRIFLUOROMETHYLPYRIMIDINE-5-CARBOXYLATE] | 700 nM |
| CCOC(=O)c1cnc(N(Cc2ccccc2)N2C(=O)C=C(C)C2=O)nc1C(F)(F)F [Example 84, ETHYL 2-[N-(1'-AMINOCITRACONAMIDO-N-BENZYL)]-4-TRIFLUOROMETHYLPYRIMIDINE-5-CARBOXYLATE] | 450 nM |
| CCOC(=O)c1cnc(NN2C(=O)C=C(c3ccccc3)C2=O)nc1C(F)(F)F [Example 40, ETHYL 2-[N-(1'-AMINO-3'-PHENYLMALEIMIDO)]-4-TRIFLUOROMETHYLPYRIMIDINE-5-CARBOXYLATE] | 1000 nM |
| COC(=O)c1cnc(NN2C(=O)C=C(C)C2=O)nc1C(F)(F)C(F)(F)F [Example 77, METHYL 2-[N-(1'-AMINOCITRACONAMIDO)]-4-PENTAFLUOROETHYLPYRIMIDINE-5-CARBOXYLATE] | 1300 nM |
| CCc1nc(N(C)N2C(=O)C=C(C)C2=O)ncc1C(=O)c1ccccc1 [Example 102, 5-BENZOYL 2-[N-(1'-AMINOCITRACONAMIDO)-N-METHYL]-4-ETHYLPYRIMIDINE] | 400 nM |
| CCOC(=O)c1cnc(N(C)N2C(=O)C=C(C)C2=O)nc1C(F)(F)F [Example 42, ETHYL 2-[N-(1'-AMINOCITRACONAMIDO)-N-METHYL]-4-TRIFLUOROMETHYLPYRIMIDINE-5-CARBOXYLATE] | 5000 nM |
| CCOC(=O)c1cnc(NN2C(=O)C=C(C)C2=O)nc1C1CC1 [Example 108, ETHYL 2-[N-(1'-AMINOCITRACONAMIDO)]-4-CYCLOPROPYLPYRIMIDINE-5-CARBOXYLATE] | 1500 nM |
| COC(=O)c1cnc(N(C)N2C(=O)C=C(C)C2=O)nc1C(F)(F)C(F)(F)F [Example 78, METHYL 2-[N-(1'-AMINOCITRACONAMIDO)]-N-METHYL]-4-PENTAFLUOROETHYLPYRMIDINE-5-CARBOXYLATE] | 150 nM |
| CCOC(=O)c1cnc(N(C)N2C(=O)C=C(C)C2=O)nc1-c1nccs1 [Example 106, ETHYL 2-[N-(1'-AMINOCITRACONAMIDO)-N-METHYL]-4-(2'-THIAZOLYL)PYRIMIDINE-5-CARBOXYLATE] | 1700 nM |
| COCc1cnc(NN2C(=O)C=C(C)C2=O)nc1C(F)(F)F [Example 113, 2-[N-(1'-AMINOCITRACONAMIDO)]-5-(METHOXYMETHYL)-4-TRIFLUOROMETHYLPYRIMIDINE] | 1000 nM |
| CCCC(=O)c1cnc(N(C)N2C(=O)C=C(C)C2=O)nc1CC [Example 107, 5-BUTANOYL 2-[N-(1'-AMINOCITRACONAMIDO-N-METHYL)]-4-ETHYLPYRIMIDINE] | 500 nM |
| CCOC(=O)c1cnc(NN2C(=O)C=C(C)C2=O)nc1COC [Example 98, ETHYL 2-[N-(1'-AMINOCITRACONAMIDO)]-4-METHOXYMETHYL PYRIMIDINE-5-CARBOXYLATE] | 6000 nM |
| CCOC(=O)c1cnc(N(C)N2C(=O)C=C(C)C2=O)nc1CC [Example 73, ETHYL 2-[N-(1'-AMINOCITRACONAMIDO)-N-METHYL]-4-ETHYLPRYRIMIDINE-5-CARBOXYLATE] | 50 nM |
| CCOC(=O)c1cnc(N(C)N2C(=O)C=C(C)C2=O)nc1-c1cccs1 [Example 85, ETHYL 2-[N-(1'-AMINOCITRACONAMIDO-N-METHYL)]-4-(2'-THIENYL)PYRIMIDINE-5-CARBOXYLATE] | 20 nM |
| CCOC(=O)c1cnc(N(C(=O)Cc2ccccc2)N2C(=O)C=C(C)C2=O)nc1C(F)(F)F [Example 97, ETHYL 2-[N-(1'-AMINOCITRACONAMIDO)-N-(1-OXO-2"-PHENYLETHYL]-4-TRIFLUOROMETHYLPYRIMIDINE-5-CARBOXYLATE] | 900 nM |
| CCc1nc(NN2C(=O)C=C(C)C2=O)ncc1C(=O)c1ccccc1 [Example 101, 5-BENZOYL 2-[N-(1'-AMINOCITRACONAMIDO)]-4-ETHYLPYRIMIDINE] | 600 nM |
| CCCC(=O)N(c1ncc(C(=O)OCC)c(C(F)(F)F)n1)N1C(=O)C=C(C)C1=O [Example 95, ETHYL 2-[N-(1'-AMINOCITRACONAMIDO-N-BUTANOYL)]-4-TRIFLUOROMETHYLPYRIMIDINE-5-CARBOXYLATE] | 300 nM |
| COC(=O)c1cnc(NN2C(=O)C=C(C)C2=O)nc1-c1cccs1 [Example 83, METHYL 2-[N-(1'-AMINOCITRACONAMIDO)]-4-(2'-THIENYL)PYRIMIDINE-5-CARBOXYLATE] | 80 nM |
| CCOC(=O)c1cnc(N(C(C)=O)N2C(=O)C=C(C)C2=O)nc1C(F)(F)F [Example 75, ETHYL 2-[N-ACETYL-N-(1'-AMINOCITRACONAMIDO)]-4-TRIFLUOROMETHYLPYRIMIDINE-5-CARBOXYLATE] | 400 nM |
| CCOC(=O)c1cnc(NN2C(=O)C=C(C)C2=O)nc1-c1ccco1 [Example 91, ETHYL 2-[N-(1'-AMINOCITRACONAMIDO)]-4-(2'-FURANYL)PYRIMIDINE-5-CARBOXYLATE] | 1100 nM |
| CC1=CC(=O)N(Nc2ncc(C(=O)c3ccccc3)c(C(F)(F)F)n2)C1=O [Example 87, 5-BENZOYL 2-[N-(1'-AMINOCITRACONAMIDO)]-4-TRIFLUOROMETHYLPYRIMIDINE] | 550 nM |
| CCCc1nc(N(C(C)=O)N2C(=O)C=C(C)C2=O)ncc1C(=O)OCC [Example 74, ETHYL 2-[N-ACETYL-N-(1'-AMINOCITRACONAMIDO)]-4-PROPYLPYRIMIDINE-5-CARBOXYLATE] | 450 nM |
| CCOC(=O)c1cnc(N(C(=O)c2ccccc2)N2C(=O)C=C(C)C2=O)nc1C(F)(F)F [Example 100, ETHYL 2-[N-(1'-AMINOCITRACONAMIDO)-N-BENZOYL]-4-TRIFLUOROMETHYLPYRIMIDINE-5-CARBOXYLATE] | 800 nM |
| CCOC(=O)c1cnc(NN2C(=O)C=C(C)C2=O)nc1-c1ccc(C)s1 [Example 90, ETHYL 2-[N-(1'-AMINOCITRACONAMIDO)]-4-[2'-(5'-METHYLTHIENYL)]PYRIMIDINE-5-CARBOXYLATE] | 60 nM |

Same assay, conditions: average of NFκB and AP-1 assays, read-out: ICm (average of the measurements obtained from the NFκB and AP-1 assays)

| IC50 | Compound |
| --- | --- |
| 120 nM | 4-[N-(1'-AMINOCITRACONAMIDO)]-5-(N-METHYL TETRAZOLYL)-2-(2"-THIENYL)PYRIMIDINE [Example 135] |
